Like-named read-outs stand apart in the source and are kept apart here.
Legend:
KRas G12C mutant = KRas G12C mutant (Homo sapiens (Human), UniProt P01116, G12C); assay: Ras GTP Binding Domain Inhibition Assay, KRas G12C mutant
Protocol: (§1) A Ras Superfamily Activity Assay (as disclosed in International Application No. PCT/US2018/038613, filed Jun. 20, 2018, which is incorporated by reference in its entirety) was used as a specific assay to evaluate compounds against the following for the following Ras Superfamily proteins: KRas wild type, KRas Q61H mutant, KRas G12C mutant, KRas G12D mutant, Rac-1, and Rho-A.
(§2) Buffer-I: • 25 mM Tris-HCl, pH 7.4 • 27 mM KCl • 137 mM NaCl • 1 mM MgCl2 • 1 mM DTT
(§3) Buffer-II: • 50 mM Tris-HCl, pH 7.0 • 1 mM MgCl2 • 1 mM DTT
(§4) The small GTPases proteins: KRas wild type. KRas Q61H mutant, KRas G12C mutant, KRas G12D mutants, Rac-1, and Rho-A were expressed as His-tagged proteins. In addition, the Guanosine nucleotide Exchange Factor (GEF) Sos protein (residues 556-1049) was expressed as a His-tagged protein. In cells, the guanine nucleotide exchange factor Sos protein promotes activation of Ras proteins by stimulating an exchange of GDP for GTP. The inclusion of Sos to the Ras GTP binding domain inhibition assay may be considered as an alternative representation of physiological cellular conditions for evaluating the inhibitory activity of some of the tested small molecules.
(§5) For the assay, all purified small GTPases proteins were diluted in Buffer-I or Buffer-II to a final concentration of 10-30 μg/mL. 200 μL of each diluted protein was added to a nickel-coated 96-well plate and incubated overnight at 4° C. Then the protein solution was discarded and 200 μL of Buffer-I or Buffer-II was added to each well in the presence of 1% DMSO. Compounds to be tested were added to the protein-coated wells at final concentration of 20 μM, and incubated for 3 hours at room temperature with and without 10-30 μg/mL of Sos added to the final hour of the incubation. When performing IC50 measurements a serial dilution of all tested concentrations was added. Then Cy3-GTP or Cy5-GTP was added to each well to a final concentration of 100 nM. The labeled GTP was incubated for 45 minutes at room temperature. Following GTP incubation, wells were washed 3× in Buffer-I or Buffer-II and 200 μL of Buffer-I or Buffer-II was added to each well. Following washes, the amount of bound labeled-GTP was measured using a SpectraMax M3 (Molecular Devices).

Rac-1 = Rac-1 (Homo sapiens (Human), UniProt P63000); assay: Ras GTP Binding Domain Inhibition Assay, Rac-1
Protocol: as §1, §2, §3, §4, §5

KRas wild type = KRas wild type (Homo sapiens (Human), UniProt P01116); assay: Ras GTP Binding Domain Inhibition Assay, KRas wild type
Protocol: as §1, §2, §3, §4, §5

Smad2/3 phosphorylation = assay: Phospho-Smad2/3 Inhibition Assay in Panc-1 (western blot); type: cell-based; conditions: Homo sapiens; for inhibition at 10 µM: 3 hours, PANC-1 stimulated with 10 ng/ml TGF-b1 for 1 hour, read-out: % inh of Smad2/3 phosphorylation in PANC-1; for IC50: PANC-1, TGF-b1 stimulated
Protocol: Cell lines: Human tumor-derived pancreatic cancer cell line Panc-1 and mouse muscle myoblast C2C12 were purchased from American Type Culture Collection and grown in complete DMEM-High Glucose, supplemented with penicillin (100 U/mL), streptomycin (100 μg/mL), and 10% heat-inactivated FBS at 37° C. in a humidified incubator with 5% CO2.
Method: Cells were plated at 350000 cells/well density in a 12-well plate, allowed 3 hours to adhere to the plate, then starved in the appropriate medium in the presence of 0.5% FBS overnight. The small molecules to be tested were added to the cells in the final concentration of 10 μM in the presence of 0.3% DMSO for 3 hours incubation at 37° C. For IC50 value determination, serial dilutions of compounds were added to cells under the same conditions. Next, Panc-1 cells were stimulated with 10 ng/ml TGF-b1 for 1 hour, and C2C12 cells were stimulated with 10 ng/ml TGF-b1 for 20 minutes (recombinant human TGF-b1, R&D Systems). After stimulation cells were lysed with lysis buffer containing 1% Triton X-100, EDTA, and Halt™ Protease & Phosphatase Inhibitor Cocktail (Thermo Scientific). Protein concentration was assessed by BCA protein assay (Thermo Scientific). Phosphorylation level of Smad2/Smad3 was determined by western blot.
Western blot protocol: Equal amounts of protein (15-50 μg) were separated by SDS-PAGE and transferred to nitrocellulose membranes (Invitrogen by Thermo Fisher Scientific). The membrane was stained with Ponceau S Stain (Boston BioProducts) to verify uniform protein loading. Membranes were blocked with 10% milk and phosphorylation levels of Smad2/Smad3 were assessed by incubating overnight at 4° C. with the following antibodies: Phospho-Smad2 (Ser465/467) and Phosph-Smad3 (Ser423/425), both from Cell Signaling Technology. Then the membranes were incubated with HRP-conjugated secondary antibody (Jackson Immunoresearch, West Grove, PA). Bands were incubated in Amersham ECL Prime Western Blotting Detection Reagent (GE Healthcare) and visualized using the ChemiDoc MP imaging system (Bio-Rad).

KRas G12D mutant = KRas G12D mutant (Homo sapiens (Human), UniProt P01116, G12D); assay: Ras GTP Binding Domain Inhibition Assay, KRas G12D mutant; conditions: for inhibition at 20 µM: Table 7; for KRas G12D mutant + SOS: % inh. / KRas G12D mutant: % inh.: 20 uM, Table 8
Protocol: as §1, §2, §3, §4, §5

[1] = + SOS, read-out: KRas G12C mutant + SOS: % inh.
[2] = without SOS, read-out: KRas G12C mutant: % inh.
[3] = + SOS, read-out: Rac-1 + SOS: % inh.
[4] = without SOS, read-out: Rac-1: % inh.
[5] = + SOS, read-out: KRas wild type + SOS: % inh.
[6] = without SOS, read-out: KRas wild type: % inh.
[7] = + SOS, read-out: KRas G12D mutant + SOS: % inh.
[8] = without SOS, read-out: KRas G12D mutant: % inh.

Sequence of KRas G12D mutant (P01116 other isoform, or with tags, fused parts or gaps G12D): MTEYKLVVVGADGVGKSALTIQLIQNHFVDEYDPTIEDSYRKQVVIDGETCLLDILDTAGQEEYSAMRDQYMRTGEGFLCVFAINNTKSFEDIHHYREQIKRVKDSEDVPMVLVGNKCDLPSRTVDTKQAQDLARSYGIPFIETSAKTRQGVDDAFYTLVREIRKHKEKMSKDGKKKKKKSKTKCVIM
Sequence of KRas G12C mutant (P01116 other isoform, or with tags, fused parts or gaps G12C): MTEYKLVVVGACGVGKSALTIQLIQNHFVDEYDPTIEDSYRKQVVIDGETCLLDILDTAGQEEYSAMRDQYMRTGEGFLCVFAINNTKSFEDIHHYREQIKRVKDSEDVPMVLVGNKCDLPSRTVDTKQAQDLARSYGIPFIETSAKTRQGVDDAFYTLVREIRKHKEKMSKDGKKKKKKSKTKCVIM
Sequence of KRas wild type (P01116 other isoform, or with tags, fused parts or gaps): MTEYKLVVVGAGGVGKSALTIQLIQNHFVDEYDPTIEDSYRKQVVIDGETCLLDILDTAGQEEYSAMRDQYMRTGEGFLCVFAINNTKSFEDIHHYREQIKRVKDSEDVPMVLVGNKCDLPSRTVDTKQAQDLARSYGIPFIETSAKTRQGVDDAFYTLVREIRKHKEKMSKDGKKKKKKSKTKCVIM

Compound | inhibition at 20 µM (KRas G12C mutant; [1]) [%] | inhibition at 20 µM (KRas G12C mutant; [2]) [%] | inhibition at 20 µM (Rac-1; [3]) [%] | inhibition at 20 µM (Rac-1; [4]) [%] | inhibition at 20 µM (KRas wild type; [5]) [%] | inhibition at 20 µM (KRas wild type; [6]) [%] | inhibition at 10 µM (Smad2/3 phosphorylation) [%] | inhibition at 20 µM (KRas G12D mutant; [7]) [%] | KRas G12D mutant + SOS: % inh. (KRas G12D mutant; + SOS) | inhibition at 20 µM (KRas G12D mutant; [8]) [%] | KRas G12D mutant: % inh. (KRas G12D mutant; without SOS) | IC50 (Smad2/3 phosphorylation) [µM]
CO[C@H]1CC[C@@H](Nc2nc(-c3nccn3C)nc3sc(-c4ccn(C(C)C)n4)c(C)c23)C1 (racemic) [Compound 12, rac-6-(1-Isopropyl-1H-pyrazol-3-yl)-N-((1R,3S)-3-methoxycyclopentyl)-5-methyl-2-(1-methyl-1H-imidazol-2-yl)thieno[2,3-d]pyrimidin-4-amine] | 76 to 100 | 46 to 75 | 46 to 75 | 46 to 75 | 76 to 100 | 76 to 100 | 1 to 25 | 46 to 75 | C (C = 46-75% inhibition) | 46 to 75 | C (C = 46-75% inhibition) | –
COc1cc(-c2sc3nc(-c4nccn4C)nc(N[C@@H]4CC[C@@H](OC)C4)c3c2-c2ccccc2)ccn1 (racemic) [Compound 47, N-((1R,3R)-3-Methoxycyclopentyl)-6-(2-methoxypyridin-4-yl)-2-(1-methyl-1H-imidazol-2-yl)-5-phenylthieno[2,3-d]pyrimidin-4-amine] | 76 to 100 | 46 to 75 | – | 46 to 75 | 76 to 100 | 76 to 100 | 76 to 100 | 76 to 100 | D (D = 76-100% inhibition) | 46 to 75 | C (C = 46-75% inhibition) | –
COCCCOc1nc(-c2nccn2C)nc2sc(-c3ccn(C(C)C)n3)c(-c3ccccc3)c12 [Compound 37, 6-(1-Isopropyl-1H-pyrazol-3-yl)-4-(3-methoxypropoxy)-2-(1-methyl-1H-imidazol-2-yl)-5-phenylthieno[2,3-d]pyrimidine] | 0 | 0 | – | 0 | 1 to 25 | 0 | 0 | 0 | 0 (0 = 0% inhibition) | 0 | 0 (0 = 0% inhibition) | –
COCCNc1nc(-c2cn(C)cn2)nc2sc(-c3cccc(OC)c3Cl)c(-c3ccc(OC)cc3)c12 [Compound 8, 6-(2-Chloro-3-methoxyphenyl)-N-(2-methoxyethyl)-5-(4-methoxyphenyl)-2-(1-methyl-1H-imidazol-4-yl)thieno[2,3-d]pyrimidin-4-amine] | 76 to 100 | 26 to 45 | 46 to 75 | 46 to 75 | 76 to 100 | 46 to 75 | 76 to 100 | 26 to 45 | B (B = 26-45% inhibition) | 26 to 45 | B (B = 26-45% inhibition) | 5 to 10
COCCCNc1nc(-c2nccn2C)nc2sc(-c3ccccc3)c(-c3ccccc3)c12 [Compound 3, N-(3-Methoxypropyl)-2-(1-methyl-1H-imidazol-2-yl)-5,6-diphenylthieno[2,3-d]pyrimidin-4-amine] | – | 46 to 75 | – | 46 to 75 | 1 to 25 | 46 to 75 | 0 | 1 to 25 | A (A = 1-25% inhibition) | 46 to 75 | C (C = 46-75% inhibition) | –
Cc1c(-c2ccn(C(C)C)n2)sc2nc(-c3nccn3C)nc(NCCN3CCS(=O)(=O)CC3)c12 [Compound 23, 4-(2-((6-(1-Isopropyl-1H-pyrazol-3-yl)-5-methyl-2-(1-methyl-1H-imidazol-2-yl)thieno[2,3-d]pyrimidin-4-yl)amino)ethyl)thiomorpholine 1,1-dioxide] | 76 to 100 | 46 to 75 | – | 46 to 75 | 76 to 100 | 76 to 100 | 0 | 76 to 100 | D (D = 76-100% inhibition) | 76 to 100 | D (D = 76-100% inhibition) | –
COCCNc1nc(-c2nccn2C)nc2sc(-c3cccc(OC)c3Cl)c(-c3ccc(OC)cc3)c12 [Compound 7, 6-(2-Chloro-3-methoxyphenyl)-N-(2-methoxyethyl)-5-(4-methoxyphenyl)-2-(1-methyl-1H-imidazol-2-yl)thieno[2,3-d]pyrimidin-4-amine] | 76 to 100 | 26 to 45 | 46 to 75 | 46 to 75 | 76 to 100 | 46 to 75 | 0 | 26 to 45 | B (B = 26-45% inhibition) | 26 to 45 | B (B = 26-45% inhibition) | 5 to 10
COCCn1ccc(-c2sc3nc(-c4nccn4C)nc(NC[C@H]4CC[C@H]4COC)c3c2C)n1 (racemic) [Compound 38, rac-6-(1-(2-Methoxyethyl)-1H-pyrazol-3-yl)-N-(((1S,2R)-2-(methoxymethyl)cyclobutyl)methyl)-5-methyl-2-(1-methyl-1H-imidazol-2-yl)thieno[2,3-d]pyrimidin-4-amine] | 76 to 100 | 46 to 75 | – | 1 to 25 | 76 to 100 | 46 to 75 | 46 to 75 | 76 to 100 | D (D = 76-100% inhibition) | 26 to 45 | B (B = 26-45% inhibition) | –
COC1CCCN(c2nc(-c3nccn3C)nc3sc(-c4ccn(C(C)C)n4)c(C)c23)C1 (racemic) [Compound 14, rac-6-(1-Isopropyl-1H-pyrazol-3-yl)-4-(3-methoxypiperidin-1-yl)-5-methyl-2-(1-methyl-1H-imidazol-2-yl)thieno[2,3-d]pyrimidine] | 76 to 100 | 26 to 45 | – | 46 to 75 | 76 to 100 | 0 | 46 to 75 | – | – | – | – | –

— patent publication US20240124483A1, “Methods for the Treatment of Fibrotic Disease” (SHY Therapeutics, LLC, priority 2021, published 2024)
